From patent publication US8802082B2, “Rhodamine derivatives for photodynamic diagnosis and treatment” (Université de Montreal, priority 1999, dated 2014) come the findings set out here.

Series [1] deals with K562 chronic myelogeneous leukemia cell line. The series can be described thus: Phototoxicity of TH9402, limiting dilution assay of clonogenic cells, K562 admixed with irradiated PBMC. The class given is cell-based. To be noted: 10 μM TH9402 40 min, 90 min dye-free, 5 joules/cm^2, LDA 12-14 days. The method, then: T cells represent the most important population of immune cells present in the peripheral blood. […] Phototoxicity was also evaluated in parallel against the chronic myelogenous leukemia cell line K562, that had been used in U.S. Pat. Nos. 5,556,992 and 5,773,460. The CEM T cell acute lymphoblastic leukemia cell line and K562 chronic myelogeneous leukemia cell line (Lozzio, B. B. and Lozzio, C. B. (1979) Cancer Res., 3(6): 363-370) were obtained from the American Type Culture Collection (ATCC, 12301 Parklawn Drive, Rockville, Md. 20852 USA) under the accession number CCL-119 and CCL-243. Cultures were maintained at 37° C. in a humidified incubator with an atmosphere of 95% air and 5% CO2. […] Before each experiment, cell viability was assessed by trypan blue exclusion. […]
To assess the photochemotherapeutic potential and the in vitro phototoxicity of 4,5-dibromorhodamine 123 hydrobromide (TH9402), the T cell line CEM and the leukemic line K562 admixed with normal irradiated PBMC were incubated with TH9402 and exposed to 5 joules/cm^2 of light (as described above). […] Growth at each serial dilution was assessed in an “all-or-nothing” (positive or negative) fashion under an inverted phase microscope. […]

Series [2] deals with resting lymphocytes. The series can be described thus: Cellular content/efflux of TH9402 by flow cytometry, resting lymphocytes. The class given is cell-based, human. The method, then:
TH9402 cellular content in resting and activated lymphocytes was evaluated by flow-cytometry, since the intensity of TH9402 (green) fluorescence correlates with the cellular content in TH9402. Briefly, 10^6 cells/ml, previously activated or not with PHA, were incubated in X-vivo-5 medium supplemented with 2.5% human AB serum and 10 μM TH9402 for 40 minutes. These cells were washed two times with X-vivo medium supplemented with 10% AB serum and cells analysed by flow cytometry 30, 50, 70, 90 and 110 min after the end of the TH9402 incorporation period. […] Since cellular concentration of TH9402 correlates with the extent of cell elimination, the high concentration of TH9402 maintained in activated lymphocytes explains their sensitivity to photodynamic therapy. In contrast, the rapid efflux of TH9402 from resting lymphocytes should explain preservation of their proliferative activity.
In order to identify the mechanism responsible for the differential retention of TH9402 between activated and resting lymphocytes, cyclosporin-A was used to block the multidrug transporter (P-gp 170). These cells were incubated with 10 μM TH9402 for 8 minutes, and washed with medium containing 1 μg/ml cyclosporin-A or medium alone. TH9402 retention was subsequently evaluated by flow-cytometry (green fluorescence) (FIG. 5). […] The functional impairment of such a pump in activated lymphocytes could explain the high levels of phototoxicity observed in these cells.
In general terms: Flow cytometry measures light scatter and fluorescence of single cells or particles in a stream.

Series [3] concerns non-lymphoid hematopoietic progenitors (CFU-GM, BFU-E, CFU-GEMM). In words: Clonogenic assay of hematopoietic progenitors in methylcellulose after PDT. The class given is cell-based, human. The settings on record: same conditions of PDT as for B cells. The method, then: To evaluate the potential of PDT with TH9402 to eliminate other immune cell populations, normal human B cells were used as targets. Mononuclear cells from normal donors were obtained by leukopheresis, and resuspended at 20 million cells per ml during the whole PDT process. Cells were centrifuged and resuspended in pre-warmed (37° C.) X-Vivo-15 medium supplemented with 2.5% FCS and 10 U/ml heparin, with 5 μM TH9402. After 40 minutes of incubation at 37° C., cells were washed and resuspended in a X-Vivo-15 medium and 10% FCS with 10 U/ml heparin (medium free of TH9402) for an efflux period of 50 minutes before exposure to light energy (10 to 30 Joules/cm^2). Cells underwent light exposure at 20 million cells per ml and at a thickness of 2 cm.
To verify that the treatment preserved normal hematopoetic progenitors, we have used a clonogenic assay to measure the amount of hematopoetic clonogenic precursors present in the same samples. […]
Normal human mononuclear cells were obtained and subjected to various PDP conditions to determine the efficacy of eradication of B cells, specificity and safety of the procedure. […] In contrast, when these cells were evaluated for the elimination of non-lymphoid hematopoietic progenitors, usually less than 50% (half of a logarithm) of these progenitors were eliminated by the same conditions of PDT (FIG. 7B). […]

On to `Br.COC(=O)c1ccccc1-c1c2ccc(=N)c(Br)c-2oc2c(Br)c(N)ccc12` [TH9402, 4,5-dibromorhodamine 123 (2-(4,5-dibromo-6-amino-3-imino-3H-xanthen-9-yl)-benzoic acid methyl ester) hydrobromide], for which the “K562 cells escaping elimination by phototherapy in comparison to the media only sample” value in series [1] was “less than 0.1%”. Moreover, the “cells demonstrating low TH9402 fluorescence” value in series [2] (10 μM TH9402 40 min, 110 minutes after the end of the incorporation period) is given as “approximately 50%”. For the same compound, the “TH9402 retention with cyclosporin A versus medium alone, resting lymphocytes” value in series [2] (10 μM TH9402, wash with 1 μg/ml cyclosporin-A, 110 minutes) is given as “higher retention”. For the same compound, the “intensity of TH9402 fluorescence, resting versus activated lymphocytes” value in series [2] (all time-points evaluated (30-110 min)) was “less for resting lymphocytes than for activated lymphocytes”. Further, the “non-lymphoid hematopoietic progenitors eliminated” value in series [3] is “less than 50%”.
